Data on 33 molecules can be found in publication PMC12280126, “Potent β-lactam-based tyrosyl-DNA phosphodiesterase 1 inhibitors identified by a virtual screen” (Scientific Reports, 2025).

In one assay the target is T1, recombinant TDP2 (Homo sapiens, UniProt O95551).
T1 sequence (O95551 1-362): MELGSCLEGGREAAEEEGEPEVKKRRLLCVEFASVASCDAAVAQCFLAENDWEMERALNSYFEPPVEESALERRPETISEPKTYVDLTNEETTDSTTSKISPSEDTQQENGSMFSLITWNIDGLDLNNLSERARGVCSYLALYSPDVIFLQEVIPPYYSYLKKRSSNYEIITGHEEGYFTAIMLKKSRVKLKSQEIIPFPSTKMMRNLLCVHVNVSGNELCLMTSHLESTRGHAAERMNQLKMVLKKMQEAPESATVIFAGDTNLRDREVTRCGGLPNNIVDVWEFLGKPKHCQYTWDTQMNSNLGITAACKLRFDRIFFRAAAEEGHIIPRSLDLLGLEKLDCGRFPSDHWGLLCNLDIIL
Description: in vitro gel-based fluorescence TDP2 assay (counterscreen). The format is biochemical. The note with it: for IC50: 15 min, RT. The protocol: (§1) The inhibition of TDP1 and TDP2 were conducted according to gel-based methods as previously described[21]–[24],[45]. Briefly, 1 nM of the DNA substrate (N14Y, 5´Cy5-[…]-pY-3´) was incubated with 40 pM full-length recombinant TDP1 or TDP1 (148–608) in the absence or presence of inhibitors for 15 min at room temperature in TDP1 reaction buffer (50 mM Tris-HCl, pH 7.5, 80 mM KCl, 2 mM EDTA, 1 mM DTT, 40 µg/mL BSA and 0.01% Tween 20). The inhibition of TDP2 was also conducted by using similar conditions. […] The reactions of both TDP1 and TDP2 were stopped by adding an equal volume of gel loading buffer (99.5% (v/v) formamide, 5 mM EDTA). The samples were then subjected to a 20% denaturing PAGE gel followed by gel scanning using a Typhoon FLA 9500 scanner (GE Healthcare). The IC50 values of the TDP1 inhibitors were calculated by comparing the percentage of the cleavage product (N14P, 5´Cy5-[…]-p-3´) produced to that in the DMSO control. The IC50 values of the TDP2 inhibitors were calculated by comparing the percentage of the cleavage product (PN18, 5’-p-[…]-Cy5-3’) produced to that in the DMSO control.
(The purpose of a counterscreen is to sort out artefacts and off-target activity.)

Another assay concerns the target T2, recombinant TDP1 (Homo sapiens, UniProt Q9NUW8).
T2 construct: incubated with 40 pM full-length recombinant TDP1 or TDP1 (148–608)
Kind of assay: in vitro gel-based fluorescence TDP1 catalytic assay. The format is biochemical. Conditions: 15 min, room temperature. The protocol:
We subjected select virtual screen hits to evaluation of TDP1 inhibitory potencies using in vitro gel-based fluorescence TDP1 catalytic assays (Fig. 2). […] To further explore this class of compounds, we purchased from TargetMol a library of approximately 90 β-lactams as 10 mM solutions in DMSO. […] We examined TDP1 inhibitory potencies of the compounds using the in vitro gel-based fluorescence assays as previously described[21]–[24]. Briefly, a 5’-Cy5-labeled DNA substrate (N14Y, 5’-Cy5-[…]-pY-3’, 1 nM) was incubated in TDP1 reaction buffer with recombinant TDP1 or truncated TDP1(148–608) (40 pM) in the absence or presence of inhibitors for 15 min at room temperature. […] The TDP1 inhibition IC50 values were calculated based on gel images of the cleavage product (N14P, 5’-Cy5-[…]-p-3’) (Fig. 3A and Table S2).
as §1

[1] abbreviates: 40 pM recombinant TDP2, 1 nM YN18 DNA substrate, read-out: TDP2 IC50.
Setting [2] is: 40 pM recombinant TDP1, 1 nM N14Y DNA substrate, read-out: TDP1 IC50.
[3] abbreviates: TDP1 IC50, 40 pM recombinant TDP1, 1 nM N14Y DNA substrate.

“And” between values parts separate entries of the source, which are not always exact repeats. Identical values can stand only once. Counter-ions that a name gives are not always drawn. Like-named read-outs stand apart in the source and are kept apart here.

T2 sequence (Q9NUW8 whole entry): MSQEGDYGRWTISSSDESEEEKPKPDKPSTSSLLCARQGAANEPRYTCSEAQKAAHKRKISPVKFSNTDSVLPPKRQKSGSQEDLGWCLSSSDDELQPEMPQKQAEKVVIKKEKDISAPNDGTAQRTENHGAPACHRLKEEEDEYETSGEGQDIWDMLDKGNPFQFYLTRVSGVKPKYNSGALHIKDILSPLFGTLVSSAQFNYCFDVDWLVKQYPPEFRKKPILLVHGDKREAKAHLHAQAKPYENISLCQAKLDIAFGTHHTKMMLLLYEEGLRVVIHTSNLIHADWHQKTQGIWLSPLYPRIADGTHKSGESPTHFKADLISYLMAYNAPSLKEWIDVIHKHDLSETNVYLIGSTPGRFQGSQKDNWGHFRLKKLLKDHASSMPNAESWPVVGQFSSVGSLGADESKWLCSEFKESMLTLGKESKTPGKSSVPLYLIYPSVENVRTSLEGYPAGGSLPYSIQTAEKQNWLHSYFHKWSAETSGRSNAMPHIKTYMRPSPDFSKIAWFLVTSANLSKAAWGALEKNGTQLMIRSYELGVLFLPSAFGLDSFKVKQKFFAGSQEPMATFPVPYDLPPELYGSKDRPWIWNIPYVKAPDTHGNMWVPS

Usually IC50 stands for the concentration needed to halve the response being measured. On to `CC1(C)S[C@@H]2[C@H](NC(=O)Cc3ccccc3)C(=O)N2[C@H]1C(=O)O` [LC5, Benzylpenicillin potassium], for which the results for the IC50 at recombinant TDP2 (setting [1]) and on recombinant TDP1 (setting [2]) were 26.1 ± 3.35 µM and above 1000 µM, respectively. On to `CO/N=C(\C(=O)N[C@@H]1C(=O)N2C(C(=O)O)=CCS[C@H]12)c1csc(N)n1` [LD9, Ceftizoxime], for which the IC50 on recombinant TDP2 (setting [1]) is 37.6 ± 7.4 µM; on recombinant TDP1 (setting [2]), 10.8 µM and < 100 µM and 11 µM. `CC1(C)S[C@@H]2[C@H](NC(=O)[C@H](N)c3ccc(O)cc3)C(=O)N2[C@H]1C(=O)O` [LB11, Amoxicillin Sodium]: the IC50 on recombinant TDP2 (setting [1]) worked out at 99 ± 2.15 µM.

As for `CC1(C)S[C@@H]2[C@H](NC(=O)[C@H](N)c3ccccc3)C(=O)N2[C@H]1C(=O)O` [LB9, Ampicillin sodium], the IC50 on recombinant TDP2 (setting [1]) was 2.49 µM; at recombinant TDP1 (setting [2]), 10.3 µM and < 100 µM and 10 µM. Further, the “greater potency against TDP2 than TDP1” value at recombinant TDP2 (ratio of gel-based IC50 values) was found to be 4 fold. As to `O=C1[C@H](CC[C@H](O)c2ccc(F)cc2)[C@@H](c2ccc(O)cc2)N1c1ccc(F)cc1` [LE9, Ezetimibe], the IC50 on recombinant TDP2 (setting [1]) was 52.6 µM; on recombinant TDP1 (setting [2]), 27.5 µM and < 100 µM and 27 µM. For the molecule `CCN1CCN(C(=O)N[C@@H](C(=O)N[C@@H]2C(=O)N3[C@@H]2SC(C)(C)[C@@H]3C(=O)O)c2ccccc2)C(=O)C1=O` [LA2, piperacillin], the half-maximal inhibitory concentration (IC50) on recombinant TDP2 (setting [1]) was 224 ± 26 µM; on recombinant TDP1 (setting [2]) it was 28 µM and < 100 µM. As for `CC1(Cn2ccnn2)C(C(=O)O)N2C(=O)CC2S1(=O)=O` (stereo not drawn) [LF8, Tazobactam acid], the concentration for half-maximal inhibition (IC50) at recombinant TDP2 (setting [1]) was 45.5 µM; at recombinant TDP1 (setting [2]), 73.8 µM and < 100 µM and 74 µM. As to `C=CC1=C(C(=O)O)N2C(=O)[C@@H](NC(=O)/C(=N\OCC(=O)O)c3csc(N)n3)[C@H]2SC1` [LH5, Cefixime], the IC50 at recombinant TDP2 (setting [1]) is 69.3 ± 6 µM; on recombinant TDP1 (setting [2]), 4 µM and < 100 µM.

Take `CON=C(C(=O)NC1C(=O)N2C(C(=O)O)=C(CSC(=O)c3ccco3)CSC12)c1csc(N)n1` (stereo not drawn) [LC2, Ceftiofur hydrochloride]: the IC50 is 80.9 ± 13.2 µM on recombinant TDP2 (setting [1]) and above 1000 µM at recombinant TDP1 (setting [2]).

Take `Cc1onc(-c2c(F)cccc2Cl)c1C(=O)N[C@@H]1C(=O)N2[C@@H]1SC(C)(C)[C@@H]2C(=O)O` [LC11, Flucloxacillin sodium]: on recombinant TDP2 (setting [1]), the IC50 was determined as 36 ± 1.35 µM. `CC(=O)OCC1=C(C(=O)O)N2C(=O)[C@@H](NC(=O)Cc3cccs3)[C@H]2SC1` [LG7, Cephalothin sodium]: the IC50 on recombinant TDP2 (setting [1]) was 35.2 µM. On to `CC1(C)S[C@@H]2[C@H](NC(=O)Cc3ccccc3)C(=O)N2[C@H]1C(=O)O` [LD8, Procaine penicillin G], for which the IC50 is 77.4 µM at recombinant TDP2 (setting [1]); 84.8 µM and < 100 µM and 85 µM at recombinant TDP1 (setting [2]). In the case of `CC(=O)OCC1=C(C(=O)O)N2C(=O)[C@@H](NC(=O)CCC[C@@H](N)C(=O)O)[C@H]2SC1` [11-Zn, Cephalosporin C Zinc salt], the IC50 at recombinant TDP2 (read-out: TDP2 IC50, 40 pM recombinant TDP2, 1 nM YN18 DNA substrate) was 89.1 µM; on recombinant TDP1 (read-out: TDP1 IC50, 40 pM recombinant TDP1, 1 nM N14Y DNA substrate) it was 5.3 µM. Take `COc1cccc2c1cc1c3c(cc4c(c32)OCO4)C(=O)N1` [LE2, Aristololactam I]: the IC50 was 70.1 µM on recombinant TDP2 (setting [1]); 80.6 µM and 81 µM at recombinant TDP1 (setting [2]); below 100 µM at recombinant TDP1 (setting [3]). Consider `CC(=O)OCC1=C(C(=O)O)N2C(=O)[C@@H](NC(=O)CCC[C@@H](N)C(=O)O)[C@H]2SC1` [LB2, Cephalosporin C zinc salt], for which the IC50 on recombinant TDP2 (TDP2 IC50, 40 pM recombinant TDP2, 1 nM YN18 DNA substrate) was 38.3 µM; on recombinant TDP1 (setting [3]), 5.54 µM and < 100 µM and 5.5 µM. Also, the “greater potency against TDP1 than against TDP2” value at recombinant TDP2 (ratio of gel-based IC50 values) is recorded as “approximately 7 fold”. For `CC1(C)[C@H](C(=O)O)N2C(=O)C[C@H]2S1(=O)=O` [LB6, Sulbactam sodium], the IC50 at recombinant TDP2 (setting [1]) was 201 µM; on recombinant TDP1 (setting [2]) it was 84.5 µM and < 100 µM and 85 µM. `CO/N=C(\C(=O)N[C@@H]1C(=O)N2C(C(=O)O)=C(COC(C)=O)CS[C@H]12)c1csc(N)n1` [LA9, Cefotaxime]: the IC50 on recombinant TDP2 (setting [1]) turned out to be 81.7 ± 5.2 µM. As for `C[C@H]1[C@H](NC(=O)/C(=N\OC(C)(C)C(=O)O)c2csc(N)n2)C(=O)N1S(=O)(=O)O` [LH3, Aztreonam], the IC50 on recombinant TDP1 (setting [2]) was 620 ± 61 µM. The same measure, in the same setting: to `CC/C=C(\C(=O)N[C@@H]1C(=O)N2C(C(=O)OCOC(=O)C(C)(C)C)=C(COC(N)=O)CS[C@H]12)c1csc(N)n1` [LD6, Cefcapene Pivoxil Hydrochloride] belongs above 1000 µM; to `Cc1nnc(SCC2=C(C(=O)O)N3C(=O)[C@@H](NC(=O)Cn4cnnn4)[C@H]3SC2)s1` [LA3, Cefazolin], above 1000 µM; to `C[C@@H](O)[C@H]1C(=O)N2C(C(=O)O)=C(S[C@@H]3CN[C@H](CNS(N)(=O)=O)C3)[C@H](C)[C@H]12` [LE10, Doripenem Hydrate], above 1000 µM.

Take `Cc1onc(-c2c(Cl)cccc2Cl)c1C(=O)N[C@@H]1C(=O)N2[C@@H]1SC(C)(C)[C@@H]2C(=O)O` [LH7, Dicloxacillin sodium monohydrate]: at recombinant TDP1 (setting [2]), the IC50 was above 1000 µM.

Regarding `CC1=C(C(=O)O)N2C(=O)[C@@H](NC(=O)[C@H](N)c3ccc(O)cc3)[C@H]2SC1` [LE1, Cefadroxil], the concentration for half-maximal inhibition (IC50) at recombinant TDP1 (setting [2]) is above 1000 µM. On to `Cc1nnc(SCC2=C(C(=O)O)N3C(=O)[C@@H](NC(=O)Cn4cc(Cl)c(=O)c(Cl)c4)[C@H]3SC2)s1` [LA8, Cefazedone], for which the IC50 at recombinant TDP1 (setting [2]) is above 1000 µM.

For the molecule `CC1(C)S[C@@H]2[C@H](NC(=O)[C@H](N)c3ccccc3)C(=O)N2[C@H]1C(=O)O` [LD1, Ampicillin Trihydrate], the 50% inhibitory concentration (IC50) is above 1000 µM on recombinant TDP2 (setting [1]); 77.3 µM and < 100 µM and 77 µM on recombinant TDP1 (setting [2]). Turning to `Cn1nnnc1SCC1=C(C(=O)O)N2C(=O)[C@@H](NC(=O)[C@H](OC=O)c3ccccc3)[C@H]2SC1` [LD4, Cefamandole nafate], the IC50 at recombinant TDP1 (setting [2]) is above 1000 µM. Consider `CO/N=C(\C(=O)N[C@@H]1C(=O)N2C(C(=O)OCOC(=O)C(C)(C)C)=C(/C=C\c3scnc3C)CS[C@H]12)c1csc(N)n1` [LF3, Cefditoren pivoxil], for which the IC50 on recombinant TDP1 (setting [2]) is above 1000 µM. `CO/N=C(\C(=O)N[C@@H]1C(=O)N2C(C(=O)O)=C(COC(C)=O)CS[C@H]12)c1csc(N)n1` [LA1, Cefotaxime sodium]: the IC50 on recombinant TDP1 (setting [2]) is above 1000 µM. Regarding `CC(C)(O/N=C(\C(=O)N[C@@H]1C(=O)N2C(C(=O)[O-])=C(C[n+]3ccccc3)CS[C@H]12)c1csc(N)n1)C(=O)O` [LF6, Ceftazidime], the IC50 on recombinant TDP2 (setting [1]) was 18.9 ± 2.2 µM; on recombinant TDP1 (setting [2]), 5.8 µM and < 100 µM.

With `Cc1nnc(SCC2=C(C(=O)O)N3C(=O)[C@@H](NC(=O)Cn4cnnn4)[C@H]3SC2)s1` [LH10, Cefazolin sodium salt], the 50% inhibitory concentration (IC50) on recombinant TDP1 (setting [2]) turned out to be 530 µM. `CO/N=C(\C(=O)N[C@@H]1C(=O)N2C(C(=O)[O-])=C(C[n+]3cccc4c3CCCC4)CS[C@H]12)c1csc(N)n1` [LD11, Cefquinome sulfate]: on recombinant TDP1 (setting [2]), the IC50 was above 1000 µM. On the same count and under the same terms, in the case of `CC1(C)S[C@@H]2[C@H](NC(=O)[C@H](NC(=O)N3CCNC3=O)c3ccccc3)C(=O)N2[C@H]1C(=O)O` [LF4, Azlocillin sodium] it was above 1000 µM; in that of `C[C@@H](O)[C@H]1C(=O)N2C(C(=O)O)=C(S[C@@H]3CN[C@H](C(=O)Nc4cccc(C(=O)O)c4)C3)[C@H](C)[C@H]12` [LD5, Ertapenem sodium], above 1000 µM.
